Assay results taken from publication PMC11912475 (Journal of Medicinal Chemistry, 2025).

How the values were obtained:
[1] = molecular target: GluN1-GluN2A NMDAR subtype (Homo sapiens, UniProt Q05586+Q12879); test: FLIPR/Ca2+ assay, NMDAR GluN1-GluN2A subtype in CHO cells; assay type: cell-based; conditions: CHO cells, 10 μM L-glutamate and 10 μM glycine; n.d. = 50% of inhibition could not be reached at the highest concentration used
Method: (§1) These compounds were assessed for their effects on specific heterodimeric NMDAR subtypes stably overexpressed in Chinese Hamster Ovary (CHO) cells. The subtypes tested included GluN1-GluN2A, GluN1-GluN2B, GluN1-GluN2C, and GluN1-GluN2D. CHO cells expressing each of the four NMDAR subtypes were incubated with 10 μM L-glutamate, a concentration known to elicit maximal Ca^2+ influx, serving as the stimulus. Intracellular Ca^2+ levels were subsequently measured to determine the extent of NMDAR activation.
(§2) Assay buffer composition was 145 mM NaCl, 5 mM KCl, 2 mM CaCl2, 1 g/Liter D-(+)-glucose, and 20 mM HEPES (pH 7.3 adjusted with NaOH). Cells were plated at a density of 15.000/well in 384 black/clear bottom plates. […] Cells were kept at 30 °C in 5% CO2 incubator for 24 h. Cells were preloaded for 1 h with 2 μM Fluo-4 Ca^2+-sensitive probe, simultaneously with 2.5 mM probenecid, an inhibitor of nonspecific anion transport, and 500 μM ketamine to avoid cytotoxicity. […] Intracellular Ca^2+ level was monitored by FLIPR (excitation wavelength at 470–495 nm, emission wavelength at 515–575 nm) for 10 s before and 5 min after the addition of test items. All test items, including L-glutamate and glycine, were added simultaneously. […] FLIPR data were normalized as 100%, in the presence of 10 μM L-glutamate and 10 μM glycine, while as 0%, in the presence of assay buffer. […] Then, data were normalized by Excel 2013 (Microsoft Office) software, using wells added with 10 μM L-glutamate plus 10 μM glycine (column 23) as high control, and wells added with assay buffer only (column 24) as low control. To assess plate quality, Z′ calculations were performed in Excel. Z′ was calculated according to following equation: Z′ = 1–3(σh + σl)/|μh – μL| where μ and σ are the means and the standard deviations of the means of high (h) and low (l) controls, respectively. Compound concentration–response curves were plotted by Prism 8 GraphPad software, in the different experimental conditions (see Supporting Information). Data were analyzed using least-squares regression fitting, to fit data to a standard four parameters logistic equation using GraphPad Prism10. This regression fitting allowed the calculation of pIC50 and the corresponding SEM.

[2] = molecular target: T1, GluN1-GluN2B NMDAR subtype (Homo sapiens, UniProt Q05586+Q13224); test: FLIPR/Ca2+ assay, NMDAR GluN1-GluN2B subtype in CHO cells; assay type: cell-based; conditions: CHO cells, 10 μM L-glutamate and 10 μM glycine; n.d. = 50% of inhibition could not be reached at the highest concentration used
T1 construct: host or cells: NR1-2B-CHO cells, constitutive expression
Method: as §1, §2

[3] = molecular target: GluN1-GluN2C NMDAR subtype (Homo sapiens, UniProt Q05586+Q14957); test: FLIPR/Ca2+ assay, NMDAR GluN1-GluN2C subtype in CHO cells; assay type: cell-based; conditions: CHO cells, 10 μM L-glutamate and 10 μM glycine; n.d. = 50% of inhibition could not be reached at the highest concentration used
Method: as §1, §2

[4] = molecular target: GluN1-GluN2D NMDAR subtype (Homo sapiens, UniProt O15399+Q05586); test: FLIPR/Ca2+ assay, NMDAR GluN1-GluN2D subtype in CHO cells; assay type: cell-based; conditions: CHO cells, 10 μM L-glutamate and 10 μM glycine; n.d. = 50% of inhibition could not be reached at the highest concentration used
Method: as §1, §2

[5] = molecular target: T2, Sigma σ1 (Homo sapiens, UniProt Q99720); test: Radioligand displacement binding assay, [3H]pentazocine, sigma σ1
T2 construct: Sigma σ1; Source: Human Jurkat cells; host or cells: Jurkat

[6] = molecular target: T3, Serotonin 5-HT5A (Homo sapiens, UniProt P47898); test: Radioligand displacement binding assay, [3H]LSD, 5-HT5A
T3 construct: host or cells: CHO-K1

[7] = molecular target: T4, Norepinephrine transporter NET (Homo sapiens, UniProt P23975); test: Radioligand displacement binding assay, [125I]RTI-55, NET
T4 construct: host or cells: MDCK

[8] = molecular target: T5, Serotonin 5-HT2A (Homo sapiens, UniProt P28223); test: Radioligand displacement binding assay, [3H]ketanserin, 5-HT2A
T5 construct: host or cells: CHO-K1

[9] = molecular target: T6, μ opioid receptor (MOP) (Homo sapiens, UniProt P35372); test: biochemical; assay type: binding; conditions: read-out: % inhibition of binding, MOP
T6 construct: host or cells: CHO-K1

[10] = molecular target: T7, Serotonin transporter SERT (Homo sapiens, UniProt P31645); test: Radioligand displacement binding assay, [3H]paroxetine, SERT
T7 construct: host or cells: HEK-293

[11] = molecular target: T8, Serotonin 5-HT7 (Homo sapiens, UniProt P34969); test: Radioligand displacement binding assay, [3H]LSD, 5-HT7
T8 construct: host or cells: CHO-K1

[12] = molecular target: T9, Histamine H1 (Homo sapiens, UniProt P35367); test: Radioligand displacement binding assay, [3H]pyrilamine, H1
T9 construct: host or cells: CHO-K1

[13] = molecular target: T10, Muscarinic M5 (Homo sapiens, UniProt P08912); test: Radioligand displacement binding assay, [3H]N-methylscopolamine, M5
T10 construct: host or cells: CHO-K1
T10 sequence (P08912 1-532): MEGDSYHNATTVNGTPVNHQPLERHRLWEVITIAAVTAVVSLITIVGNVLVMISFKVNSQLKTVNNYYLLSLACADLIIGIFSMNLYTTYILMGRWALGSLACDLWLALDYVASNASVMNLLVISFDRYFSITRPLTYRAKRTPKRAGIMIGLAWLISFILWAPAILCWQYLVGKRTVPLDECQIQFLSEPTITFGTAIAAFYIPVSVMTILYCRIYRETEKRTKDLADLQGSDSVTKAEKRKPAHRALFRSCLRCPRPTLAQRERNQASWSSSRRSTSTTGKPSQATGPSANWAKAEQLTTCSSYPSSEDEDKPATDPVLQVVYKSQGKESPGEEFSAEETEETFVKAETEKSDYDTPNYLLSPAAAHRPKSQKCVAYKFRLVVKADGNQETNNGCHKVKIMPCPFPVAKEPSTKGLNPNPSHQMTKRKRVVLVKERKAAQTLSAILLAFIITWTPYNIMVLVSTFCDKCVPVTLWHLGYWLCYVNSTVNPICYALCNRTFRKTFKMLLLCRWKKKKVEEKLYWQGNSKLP

[14] = molecular target: T11, Serotonin 5-HT1A (Homo sapiens, UniProt P08908); test: Radioligand displacement binding assay, [3H]8-OH-DPAT, 5-HT1A
T11 construct: host or cells: CHO-K1
T11 sequence (P08908 1-422): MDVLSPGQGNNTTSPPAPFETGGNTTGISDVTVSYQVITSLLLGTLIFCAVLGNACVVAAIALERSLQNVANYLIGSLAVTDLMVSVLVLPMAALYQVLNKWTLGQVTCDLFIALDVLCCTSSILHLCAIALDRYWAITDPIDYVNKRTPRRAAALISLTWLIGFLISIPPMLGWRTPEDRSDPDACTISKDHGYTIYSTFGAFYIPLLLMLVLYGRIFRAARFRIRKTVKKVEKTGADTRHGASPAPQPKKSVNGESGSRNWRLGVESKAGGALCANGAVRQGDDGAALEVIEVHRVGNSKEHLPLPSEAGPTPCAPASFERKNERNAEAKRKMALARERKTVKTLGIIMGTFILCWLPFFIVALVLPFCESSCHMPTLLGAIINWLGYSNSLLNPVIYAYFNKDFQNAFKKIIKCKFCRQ

[15] = molecular target: T12, Serotonin 5-HT2C (Homo sapiens, UniProt P28335); test: Radioligand displacement binding assay, [3H]mesulergine, 5-HT2C
T12 construct: host or cells: CHO-K1
T12 sequence (P28335 33-458): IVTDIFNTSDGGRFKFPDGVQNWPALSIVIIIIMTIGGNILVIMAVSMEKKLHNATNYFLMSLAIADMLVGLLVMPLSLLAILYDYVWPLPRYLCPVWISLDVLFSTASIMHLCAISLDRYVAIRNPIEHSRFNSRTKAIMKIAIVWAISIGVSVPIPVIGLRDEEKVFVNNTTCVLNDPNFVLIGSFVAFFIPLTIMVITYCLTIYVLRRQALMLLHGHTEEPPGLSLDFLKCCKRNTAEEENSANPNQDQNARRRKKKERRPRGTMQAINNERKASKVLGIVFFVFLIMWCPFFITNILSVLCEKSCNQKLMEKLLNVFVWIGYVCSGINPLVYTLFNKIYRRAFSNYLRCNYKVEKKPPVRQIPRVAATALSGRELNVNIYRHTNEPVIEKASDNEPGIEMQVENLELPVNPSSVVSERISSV

[16] = test system: Glutamate, NMDA, Phencyclidine binding site; test: Radioligand displacement binding assay, [3H]TCP, NMDA; design: species or system Wistar rat

GluN1-GluN2D NMDAR subtype, sequence (O15399 28-1336, other chains not shown): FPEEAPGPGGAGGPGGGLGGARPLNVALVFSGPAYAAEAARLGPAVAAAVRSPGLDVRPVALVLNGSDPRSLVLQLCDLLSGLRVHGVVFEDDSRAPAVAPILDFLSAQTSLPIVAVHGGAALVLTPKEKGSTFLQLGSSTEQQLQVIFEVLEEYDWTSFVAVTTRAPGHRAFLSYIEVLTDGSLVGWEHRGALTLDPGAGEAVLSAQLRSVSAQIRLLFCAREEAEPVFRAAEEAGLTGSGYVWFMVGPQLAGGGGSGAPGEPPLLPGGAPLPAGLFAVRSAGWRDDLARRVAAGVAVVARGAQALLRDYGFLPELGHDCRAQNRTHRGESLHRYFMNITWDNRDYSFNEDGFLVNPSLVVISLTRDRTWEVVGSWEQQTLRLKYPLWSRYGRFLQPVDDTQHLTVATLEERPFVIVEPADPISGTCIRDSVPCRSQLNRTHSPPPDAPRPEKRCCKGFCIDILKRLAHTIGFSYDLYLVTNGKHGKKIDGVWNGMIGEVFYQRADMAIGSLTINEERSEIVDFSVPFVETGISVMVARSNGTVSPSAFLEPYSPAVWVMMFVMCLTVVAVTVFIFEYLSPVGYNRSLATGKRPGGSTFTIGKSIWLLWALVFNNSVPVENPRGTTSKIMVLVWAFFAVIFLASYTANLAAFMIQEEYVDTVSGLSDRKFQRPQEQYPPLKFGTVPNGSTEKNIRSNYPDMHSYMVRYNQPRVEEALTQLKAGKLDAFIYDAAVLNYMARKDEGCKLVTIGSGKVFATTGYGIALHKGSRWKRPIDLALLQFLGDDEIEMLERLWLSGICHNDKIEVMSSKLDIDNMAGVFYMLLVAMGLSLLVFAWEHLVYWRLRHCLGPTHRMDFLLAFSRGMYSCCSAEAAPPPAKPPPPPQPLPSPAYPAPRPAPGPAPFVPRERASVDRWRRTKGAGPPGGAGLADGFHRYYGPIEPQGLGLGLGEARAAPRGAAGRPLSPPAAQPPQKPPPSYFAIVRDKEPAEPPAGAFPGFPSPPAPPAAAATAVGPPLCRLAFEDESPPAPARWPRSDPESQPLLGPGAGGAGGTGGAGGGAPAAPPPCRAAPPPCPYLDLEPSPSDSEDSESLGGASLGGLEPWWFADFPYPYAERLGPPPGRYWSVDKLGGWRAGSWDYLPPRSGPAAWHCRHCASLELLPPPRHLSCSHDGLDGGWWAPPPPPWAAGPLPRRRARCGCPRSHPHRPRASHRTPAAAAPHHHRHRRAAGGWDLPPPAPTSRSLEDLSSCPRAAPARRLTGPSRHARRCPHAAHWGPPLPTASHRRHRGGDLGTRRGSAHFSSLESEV
GluN1-GluN2C NMDAR subtype, sequence (Q14957 20-1233, other chains not shown): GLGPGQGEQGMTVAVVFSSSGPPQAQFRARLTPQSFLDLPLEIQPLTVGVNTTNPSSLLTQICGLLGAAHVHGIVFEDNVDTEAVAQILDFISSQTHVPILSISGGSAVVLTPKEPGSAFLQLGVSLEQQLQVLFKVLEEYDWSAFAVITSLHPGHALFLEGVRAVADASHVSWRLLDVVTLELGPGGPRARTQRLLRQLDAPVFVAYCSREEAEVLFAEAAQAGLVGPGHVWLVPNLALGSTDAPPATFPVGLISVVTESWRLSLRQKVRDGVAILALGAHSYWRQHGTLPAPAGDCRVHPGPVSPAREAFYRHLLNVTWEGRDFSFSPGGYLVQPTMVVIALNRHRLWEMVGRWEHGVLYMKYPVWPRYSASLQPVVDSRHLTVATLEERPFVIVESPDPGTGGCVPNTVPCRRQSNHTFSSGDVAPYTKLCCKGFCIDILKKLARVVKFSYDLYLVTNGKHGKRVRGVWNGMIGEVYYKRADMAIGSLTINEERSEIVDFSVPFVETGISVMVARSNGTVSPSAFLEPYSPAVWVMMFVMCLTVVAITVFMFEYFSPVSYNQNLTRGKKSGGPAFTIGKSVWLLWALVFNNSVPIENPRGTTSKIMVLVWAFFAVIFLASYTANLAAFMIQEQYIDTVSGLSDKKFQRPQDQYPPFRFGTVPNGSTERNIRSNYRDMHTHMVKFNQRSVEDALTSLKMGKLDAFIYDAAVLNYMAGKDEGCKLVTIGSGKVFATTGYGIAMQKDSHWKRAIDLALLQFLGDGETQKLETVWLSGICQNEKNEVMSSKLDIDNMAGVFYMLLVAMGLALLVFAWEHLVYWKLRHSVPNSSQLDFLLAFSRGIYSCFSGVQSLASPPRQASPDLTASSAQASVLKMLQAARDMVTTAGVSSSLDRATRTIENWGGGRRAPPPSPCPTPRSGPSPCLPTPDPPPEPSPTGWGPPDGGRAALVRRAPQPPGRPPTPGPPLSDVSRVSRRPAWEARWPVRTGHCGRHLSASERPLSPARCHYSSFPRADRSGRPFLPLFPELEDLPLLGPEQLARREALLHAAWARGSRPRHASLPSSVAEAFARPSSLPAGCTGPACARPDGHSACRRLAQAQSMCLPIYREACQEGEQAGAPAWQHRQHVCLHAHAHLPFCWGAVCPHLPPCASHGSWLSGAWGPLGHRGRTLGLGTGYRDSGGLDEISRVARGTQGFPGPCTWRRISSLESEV
GluN1-GluN2A NMDAR subtype, sequence (Q12879 23-1464, other chains not shown): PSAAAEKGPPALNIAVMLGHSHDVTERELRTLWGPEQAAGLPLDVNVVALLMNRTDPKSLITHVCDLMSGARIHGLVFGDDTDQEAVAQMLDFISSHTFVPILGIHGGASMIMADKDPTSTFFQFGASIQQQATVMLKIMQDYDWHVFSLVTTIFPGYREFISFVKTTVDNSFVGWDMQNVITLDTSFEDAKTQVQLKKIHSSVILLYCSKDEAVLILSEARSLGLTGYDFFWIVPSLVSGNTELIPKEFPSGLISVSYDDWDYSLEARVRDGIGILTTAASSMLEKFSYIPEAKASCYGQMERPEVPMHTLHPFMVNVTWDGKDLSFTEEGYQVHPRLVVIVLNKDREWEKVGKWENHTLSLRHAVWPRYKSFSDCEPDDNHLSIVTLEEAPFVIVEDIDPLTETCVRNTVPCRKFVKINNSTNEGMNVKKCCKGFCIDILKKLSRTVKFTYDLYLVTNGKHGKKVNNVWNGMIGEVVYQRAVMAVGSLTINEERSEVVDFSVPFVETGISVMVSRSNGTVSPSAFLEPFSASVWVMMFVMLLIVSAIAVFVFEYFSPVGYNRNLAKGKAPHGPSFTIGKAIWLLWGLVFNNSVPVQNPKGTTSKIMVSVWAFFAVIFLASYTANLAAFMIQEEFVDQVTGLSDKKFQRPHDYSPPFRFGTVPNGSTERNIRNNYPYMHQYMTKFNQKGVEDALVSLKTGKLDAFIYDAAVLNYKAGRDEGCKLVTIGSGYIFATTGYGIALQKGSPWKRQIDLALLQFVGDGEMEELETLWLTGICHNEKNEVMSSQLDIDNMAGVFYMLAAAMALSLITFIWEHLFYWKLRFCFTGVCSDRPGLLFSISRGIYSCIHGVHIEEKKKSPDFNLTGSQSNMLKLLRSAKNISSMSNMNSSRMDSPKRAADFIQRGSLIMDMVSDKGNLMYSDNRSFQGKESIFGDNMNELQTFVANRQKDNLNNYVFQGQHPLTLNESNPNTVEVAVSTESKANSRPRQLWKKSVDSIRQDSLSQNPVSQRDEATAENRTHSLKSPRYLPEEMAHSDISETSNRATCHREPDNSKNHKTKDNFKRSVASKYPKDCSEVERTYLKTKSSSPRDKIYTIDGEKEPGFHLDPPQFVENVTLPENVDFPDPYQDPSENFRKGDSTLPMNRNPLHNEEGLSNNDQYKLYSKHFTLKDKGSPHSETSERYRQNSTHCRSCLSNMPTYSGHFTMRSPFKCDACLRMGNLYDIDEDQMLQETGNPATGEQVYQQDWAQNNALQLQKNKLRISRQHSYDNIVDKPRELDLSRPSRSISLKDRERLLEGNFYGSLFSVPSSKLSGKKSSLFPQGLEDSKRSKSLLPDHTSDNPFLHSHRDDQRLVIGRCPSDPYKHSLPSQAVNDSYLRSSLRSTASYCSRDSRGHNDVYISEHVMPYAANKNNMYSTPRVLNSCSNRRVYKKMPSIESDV
T9 sequence (P35367 whole entry): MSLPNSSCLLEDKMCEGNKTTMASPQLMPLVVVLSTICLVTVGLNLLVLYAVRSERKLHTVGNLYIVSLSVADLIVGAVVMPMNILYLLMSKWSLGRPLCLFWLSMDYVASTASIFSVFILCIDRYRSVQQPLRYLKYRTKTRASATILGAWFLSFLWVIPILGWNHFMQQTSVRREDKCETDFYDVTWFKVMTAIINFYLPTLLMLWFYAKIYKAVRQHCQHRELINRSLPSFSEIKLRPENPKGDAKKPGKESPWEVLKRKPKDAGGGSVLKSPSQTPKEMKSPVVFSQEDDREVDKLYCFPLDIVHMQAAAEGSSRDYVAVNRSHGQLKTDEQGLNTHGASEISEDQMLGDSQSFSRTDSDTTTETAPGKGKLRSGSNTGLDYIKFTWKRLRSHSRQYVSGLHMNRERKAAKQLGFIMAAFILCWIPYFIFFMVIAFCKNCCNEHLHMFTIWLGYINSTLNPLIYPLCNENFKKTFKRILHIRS
T2 sequence (Q99720 whole entry): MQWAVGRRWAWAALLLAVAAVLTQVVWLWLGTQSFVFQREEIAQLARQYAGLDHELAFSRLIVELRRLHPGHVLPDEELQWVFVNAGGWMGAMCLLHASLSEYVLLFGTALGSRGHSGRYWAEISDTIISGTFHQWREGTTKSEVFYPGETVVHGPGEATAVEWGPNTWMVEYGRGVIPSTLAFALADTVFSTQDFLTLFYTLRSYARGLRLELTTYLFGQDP
T3 sequence (P47898 whole entry): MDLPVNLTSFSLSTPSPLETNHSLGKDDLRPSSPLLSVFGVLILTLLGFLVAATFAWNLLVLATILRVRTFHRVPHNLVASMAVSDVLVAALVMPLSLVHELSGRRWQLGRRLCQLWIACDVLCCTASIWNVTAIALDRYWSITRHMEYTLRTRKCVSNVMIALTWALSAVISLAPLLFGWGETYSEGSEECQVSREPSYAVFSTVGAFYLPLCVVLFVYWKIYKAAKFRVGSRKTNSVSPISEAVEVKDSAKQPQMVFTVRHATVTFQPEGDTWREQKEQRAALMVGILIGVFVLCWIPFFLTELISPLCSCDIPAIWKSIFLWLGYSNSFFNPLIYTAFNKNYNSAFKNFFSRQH

CC[C@@H](O)C(C[C@H](C)N(C)C)(c1ccccc1)c1ccccc1 [(3R,6S)-ML, (3R,6S)-6-(dimethylamino)-4,4-diphenylheptan-3-ol]
pIC50 (mean ± SEM) GluN1-GluN2A [1]: 4.0 ± 0.23

C[C@]12N[C@H](Cc3ccccc31)c1ccccc12 [(+)-MK-801, reference compound]
pIC50 (mean ± SEM) GluN1-GluN2B [2]: 7.2 ± 0.067
pIC50 (mean ± SEM) GluN1-GluN2C [3]: 6.2 ± 0.064
pIC50 (mean ± SEM) GluN1-GluN2D [4]: 6.1 ± 0.58

CCC1=[N+](C)[C@H](C)CC1(c1ccccc1)c1ccccc1.[Cl-] [(R)-EDDP, 2-Ethyl-1,5-dimethyl-3,3-diphenyl-3,4-dihydro-5H-pyrrolium chloride]
pIC50 (mean ± SEM) GluN1-GluN2C [3]: 4.3 ± 0.056
pIC50 (mean ± SEM) GluN1-GluN2D [4]: 4.3 ± 0.060

CC[C@H](O)C(C[C@@H](C)N(C)C)(c1ccccc1)c1ccccc1 [(3S,6R)-ML, (3S,6R)-6-(dimethylamino)-4,4-diphenylheptan-3-ol]
pIC50 (mean ± SEM) GluN1-GluN2A [1]: 4.5 ± 0.18
pIC50 (mean ± SEM) GluN1-GluN2C [3]: 4.2 ± 0.074
pIC50 (mean ± SEM) GluN1-GluN2D [4]: 4.2 ± 0.23

CCC1=N[C@H](C)CC1(c1ccccc1)c1ccccc1 [(R)-EMDP, 5-Ethyl-2-methyl-4,4-diphenyl-3,4-dihydro-2H-pyrrole]
inhibition at 0.3 µM ([5]; 0.3 μM): 11%
inhibition at 3 µM ([5]; 3 μM): 49%
inhibition at 1 µM ([6]; 1 μM): 1%
inhibition at 10 µM ([6]; 10 μM): 0%
inhibition at 1 µM ([7]; 1 μM): -5%
inhibition at 10 µM ([7]; 10 μM): 27%
inhibition at 0.3 µM ([8]; 0.3 μM): 4%
inhibition at 3 µM ([8]; 3 μM): 14%
inhibition at 0.3 µM ([9]; 0.3 μM): -4%
inhibition at 3 µM ([9]; 3 μM): 8%
inhibition at 1 µM ([10]; 1 μM): 3%
inhibition at 10 µM ([10]; 10 μM): 7%
inhibition at 1 µM ([11]; 1 μM): 0%
inhibition at 10 µM ([11]; 10 μM): 8%
pIC50 (mean ± SEM) GluN1-GluN2A [1]: 4.8 ± 0.088
inhibition at 10 µM ([12]; 10 μM): 24%
inhibition at 30 µM ([12]; 30 μM): 62%
displacement at the histamine H1 receptor, in words ([12]; concentration not given): significant displacement percentages
inhibition at 1 µM ([13]; 1 μM): 6%
inhibition at 10 µM ([13]; 10 μM): 3%
inhibition at 0.3 µM ([14]; 0.3 μM): 0%
inhibition at 3 µM ([14]; 3 μM): 7%
inhibition at 0.3 µM ([15]; 0.3 μM): 2%
inhibition at 3 µM ([15]; 3 μM): 7%
% inhibition of binding, NMDA ([16]; 1 μM): 12%
% inhibition of binding, NMDA ([16]; 10 μM): 4%
